From patent publication US7465741B2, “C-substituted tricyclic isoxazoline derivatives and their use as anti-depressants” (Janssen Pharmaceutica N.V., priority 2002, dated 2008)
Where a name gives a salt, the structure may show the parent alone.

Key:
hα2A receptor = target: T1, hα2A receptor (Homo sapiens, UniProt P08913); experiment: Radioligand binding experiment for hα2A receptor ([3H]-raulwolscine, CHO cell membranes); settings: [3H]-raulwolscine 1 nM, membranes of CHO cells transfected with human α2A receptor; read-out: pIC50 hα2A (converted)
T1 construct: expressed in transfected cells; host or cells: CHO cells
T1 sequence (P08913 1-465): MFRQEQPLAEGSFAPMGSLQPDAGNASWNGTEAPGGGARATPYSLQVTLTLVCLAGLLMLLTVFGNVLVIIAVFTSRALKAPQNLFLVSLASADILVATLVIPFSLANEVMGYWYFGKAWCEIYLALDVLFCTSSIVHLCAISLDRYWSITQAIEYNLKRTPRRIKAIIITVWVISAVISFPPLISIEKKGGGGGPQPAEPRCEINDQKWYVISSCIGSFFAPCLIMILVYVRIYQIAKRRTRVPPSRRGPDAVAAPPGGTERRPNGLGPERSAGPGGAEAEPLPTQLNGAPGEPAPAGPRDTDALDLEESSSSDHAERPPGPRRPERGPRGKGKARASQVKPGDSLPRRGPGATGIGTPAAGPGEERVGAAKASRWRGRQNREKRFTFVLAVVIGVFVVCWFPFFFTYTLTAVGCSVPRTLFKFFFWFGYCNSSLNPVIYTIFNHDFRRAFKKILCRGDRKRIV
Procedure: (§1) The interaction of the compounds according to Formula (I) with hα2-receptors and h5-HT-transporters was assessed in in vitro radioligand binding experiments. In general, a low concentration of a radioligand with a high binding affinity for a particular receptor or transporter is incubated with a sample of a tissue preparation enriched in a particular receptor or transporter or with a preparation of cells expressing cloned human receptors in a buffered medium. During the incubation, the radioligand binds to the receptor or transporter. When equilibrium of binding is reached, the receptor bound radioactivity is separated from the non-bound radioactivity, and the receptor- or transporter-bound activity is counted. The interaction of the test compounds with the receptor is assessed in competition binding experiments. Various concentrations of the test compound are added to the incubation mixture containing the receptor- or transporter preparation and the radioligand. The test compound in proportion to its binding affinity and its concentration inhibits binding of the radioligand. The radioligand used for hα2A, hα2B and hα2C receptor binding was [^3H]-raulwolscine and for the h5-HT transporter was [^3H]paroxetine.
(§2) CHO cells, stabile transfected with human adrenergic-α2A-, —α2B or α2C receptor cDNA, were cultured in Dulbecco's Modified Eagle's Medium (DMEM)/Nutrient mixture Ham's F12 (ratio 1:1)(Gibco, Gent-Belgium) supplemented with 10% heat inactivated fetal calf serum (Life Technologies, Merelbeke-Belgium) and antibiotics (100 IU/ml penicillin G, 100 μg/ml streptomycin sulphate, 110 μg/ml pyruvic acid and 100 μg/ml L-glutamine). One day before collection, cells were induced with 5 mM sodiumbutyrate. Upon 80-90% of confluence, cells were scraped in phosphate buffered saline without Ca^2+ and Mg^2+ and collected by centrifugation at 1500×g for 10 min. The cells were homogenised in Tris-HCl 50 mM using an Ultraturrax homogenizer and centrifuged for 10 min at 23,500×g. The pellet was washed once by resuspension and rehomogenization and the final pellet was resuspended in Tris-HCl, divided in 1 ml aliquots and stored at −70° C.
(§3) Membranes were thawed and re-homogenized in incubation buffer (glycylglycine 25 mM, pH 8.0). In a total volume of 500 μl, 2-10 μg protein was incubated with [^3H]raulwolscine (NET-722) (New England Nuclear, USA) (1 nM final concentration) with or without competitor for 60 min at 25° C. followed by rapid filtration over GF/B filter using a Filtermate196 harvester (Packard, Meriden, Conn.). Filters were rinsed extensively with ice-cold rinsing buffer (Tris-HCl 50 mM pH 7.4). Filter-bound radioactivity was determined by scintillation counting in a Topcount (Packard, Meriden, Conn.) and results were expressed as counts per minute (cpm). Non-specific binding was determined in the presence of 1 μM oxymetazoline for hα2A- and hα2B receptors and 1 μM spiroxatrine for hα2C receptors.
(§4) Data from assays in the presence of compound were calculated as a percentage of total binding measured in the absence of test compound. Inhibition curves, plotting percent of total binding versus the log value of the concentration of the test compound, were automatically generated, and sigmoidal inhibition curves were fitted using non-linear regression. The pIC50 values of test compounds were derived from individual curves.

h5-HT transporter = target: T2, h5-HT transporter (Homo sapiens, UniProt P31645); experiment: Radioligand binding experiment for 5-HT transporter ([3H]paroxetine, human platelet membranes); settings: [3H]paroxetine 0.5 nM, read-out: pIC50 h5HTT (converted)
T2 construct: Human platelet membranes (Oceanix Biosciences Corporation, Hanover, Md., USA) were thawed; tissue Oceanix Biosciences Corporation; host or cells: human platelet membranes
T2 sequence (P31645 whole entry): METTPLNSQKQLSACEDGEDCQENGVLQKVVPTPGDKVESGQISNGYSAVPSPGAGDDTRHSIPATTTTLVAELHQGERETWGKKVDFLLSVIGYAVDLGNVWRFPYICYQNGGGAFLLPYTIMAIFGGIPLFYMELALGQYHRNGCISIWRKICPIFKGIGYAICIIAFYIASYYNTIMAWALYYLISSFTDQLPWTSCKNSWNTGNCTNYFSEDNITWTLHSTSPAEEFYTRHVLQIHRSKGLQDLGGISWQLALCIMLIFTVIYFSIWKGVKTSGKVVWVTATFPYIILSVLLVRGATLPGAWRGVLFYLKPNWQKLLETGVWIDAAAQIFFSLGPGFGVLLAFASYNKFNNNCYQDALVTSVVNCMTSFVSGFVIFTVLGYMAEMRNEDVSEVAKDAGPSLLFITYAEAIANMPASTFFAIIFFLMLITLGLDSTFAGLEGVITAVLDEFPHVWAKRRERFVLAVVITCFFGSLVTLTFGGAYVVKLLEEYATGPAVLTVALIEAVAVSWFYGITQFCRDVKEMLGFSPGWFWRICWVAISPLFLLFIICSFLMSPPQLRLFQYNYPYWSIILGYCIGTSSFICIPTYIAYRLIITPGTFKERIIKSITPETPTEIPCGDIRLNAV
Procedure: as §1
Human platelet membranes (Oceanix Biosciences Corporation, Hanover, Md., USA) were thawed, diluted in buffer (Tris-HCl 50 mM, 120 mM NaCl and 5 mM KCl) and quickly (max 3 s) homogenised with an Ultraturrax homogenizer. In a total volume of 250 μL, 50-100 μg protein was incubated with [^3H]paroxetine (NET-869) (New England Nuclear, USA) (0.5 nM final concentration) with or without competitor for 60 min at 25° C. Incubation was stopped by rapid filtration of the incubation mixture over GF/B filters, pre-wetted with 0.1% polyethyleneamine, using a Filtermate 196 harvester (Packard, Meriden, Conn.). Filters were rinsed extensively with ice-cold buffer and radioactivity on the filters was counted in a Topcount liquid scintillation counter (Packard, Meriden, Conn.). Data were expressed as cpm. Imipramine (at 1 μM final concentration) was used to determine the non-specific binding.
as §4

hα2B receptor = target: T3, hα2B receptor (Homo sapiens, UniProt P18089); experiment: Radioligand binding experiment for hα2B receptor ([3H]-raulwolscine, CHO cell membranes); settings: [3H]-raulwolscine 1 nM, membranes of CHO cells transfected with human α2B receptor; read-out: pIC50 hα2B (converted)
T3 construct: expressed in transfected cells; host or cells: CHO cells
T3 sequence (P18089 1-450): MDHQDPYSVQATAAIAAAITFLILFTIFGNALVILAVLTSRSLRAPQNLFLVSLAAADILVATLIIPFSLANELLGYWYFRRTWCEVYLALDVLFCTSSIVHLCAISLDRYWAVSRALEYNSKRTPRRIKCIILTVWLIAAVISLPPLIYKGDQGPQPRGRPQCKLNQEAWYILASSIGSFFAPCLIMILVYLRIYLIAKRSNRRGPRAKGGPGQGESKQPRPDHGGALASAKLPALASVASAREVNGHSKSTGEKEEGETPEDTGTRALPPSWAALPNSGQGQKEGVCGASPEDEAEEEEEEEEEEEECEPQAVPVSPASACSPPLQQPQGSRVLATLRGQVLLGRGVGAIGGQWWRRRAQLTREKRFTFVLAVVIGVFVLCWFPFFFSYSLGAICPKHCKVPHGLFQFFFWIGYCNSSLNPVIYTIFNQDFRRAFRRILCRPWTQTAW
Procedure: as §1, §2, §3, §4

hα2C receptor = target: T4, hα2C receptor (Homo sapiens, UniProt P18825); experiment: Radioligand binding experiment for hα2C receptor ([3H]-raulwolscine, CHO cell membranes); settings: [3H]-raulwolscine 1 nM, membranes of CHO cells transfected with human α2C receptor; read-out: pIC50 hα2C (converted)
T4 construct: expressed in transfected cells; host or cells: CHO cells
T4 sequence (P18825 1-462): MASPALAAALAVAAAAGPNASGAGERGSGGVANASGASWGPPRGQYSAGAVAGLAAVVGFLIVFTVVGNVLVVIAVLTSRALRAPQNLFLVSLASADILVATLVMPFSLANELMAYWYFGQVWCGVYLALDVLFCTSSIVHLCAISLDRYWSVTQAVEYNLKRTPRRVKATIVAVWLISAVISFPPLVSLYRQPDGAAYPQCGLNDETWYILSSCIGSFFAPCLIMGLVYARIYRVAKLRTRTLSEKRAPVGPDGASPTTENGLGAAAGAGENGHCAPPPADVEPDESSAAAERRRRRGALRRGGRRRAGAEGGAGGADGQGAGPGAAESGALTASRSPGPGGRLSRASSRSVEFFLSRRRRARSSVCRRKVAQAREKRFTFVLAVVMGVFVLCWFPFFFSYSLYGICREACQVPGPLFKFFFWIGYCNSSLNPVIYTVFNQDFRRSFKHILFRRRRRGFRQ
Procedure: as §1, §2, §3, §4

Row | SMILES | IC50 (hα2A receptor) [nM] | IC50 (h5-HT transporter) [nM] | melting point [°C] | IC50 (hα2B receptor) [nM] | IC50 (hα2C receptor) [nM]
1 | COc1cc2c(cc1CN1CCOCC1)OCC1C2=NOC1CN1CCN(CC(C)=Cc2ccccc2)CC1 (single isomer, unassigned) [Compound 21] | 15.8 | 10 | 56.1 to 68 | 6.31 | 3.16
2 | CC(=Cc1ccccc1)CN1CCN(CC2ON=C3c4ccc(CN(C)CCO)cc4OCC32)CC1 (stereo not drawn) (as salt: HCl) [Compound 9, 2-(Methyl-{3-[4-(2-methyl-3-phenyl-allyl)-piperazin-1-ylmethyl]-3a,4-dihydro-3H -chromeno[4,3-c]isoxazol-7-ylmethyl}-amino)-ethanol] | – | – | 228.6 to 252.1 | – | –
3 | COc1cc2c(cc1-c1ccc(C(C)=O)s1)OCC1C2=NOC1CN1CCN(CC(C)=Cc2ccccc2)CC1 (stereo not drawn) [Compound 18, 1-(5-{8-Methoxy-3-[4-(2-methyl-3-phenyl-allyl)-piperazin-1-ylmethyl]-3a,4-dihydro-3H-chromeno[4,3-c]isoxazol-7-yl}-thiophen-2-yl)-ethanone] | 15.8 | – | 150.1 to 171.8 | – | 10
4 | C/C(=C\c1ccccc1)CN1CCN(CC2ON=C3c4ccc(C#N)cc4OCC32)CC1 (stereo not drawn) [Compound 13, 3-[4-(2-Methyl-3-phenyl-allyl)-piperazin-1-ylmethyl]-3a,4-dihydro-3H -chromeno[4,3-c]isoxazole-7-carbonitrile] | 1.58 | 126 | 132.2 to 146.7 | – | 0.501
5 | COc1cc2c(cc1CN1CCOCC1)OCC1C2=NOC1CN1CCN(CC(C)=Cc2ccccc2)CC1 (single isomer, unassigned) [Compound 20] | 398 | 20 | 66.5 to 89.8 | 20 | 50.1
6 | Cc1ccc2c(c1)C1=NOC(CN3CCN(CC=Cc4ccccc4)CC3)C1CO2 (stereo not drawn) [Compound 1, 8-Methyl-3-[4-(3-phenyl-allyl)-piperazin-1-ylmethyl]-3a,4-dihydro-3H-chromeno[4,3-c]isoxazole] | 3.98 | 39.8 | – | 10 | 15.8
7 | COc1cc2c(cc1CN1CCC(C)CC1)OCC1C2=NOC1CN1CCN(CC(C)=Cc2ccc(F)cc2)CC1 (stereo not drawn) [Compound 25] | 6.31 | 31.6 | – | 2.51 | 0.794
8 | CC(=Cc1ccccc1)CN1CCN(CC2ON=C3c4ccc(CN(C)CCO)cc4OCC32)CC1 (stereo not drawn) [Compound 9, 2-(Methyl-{3-[4-(2-methyl-3-phenyl-allyl)-piperazin-1-ylmethyl]-3a,4-dihydro-3H -chromeno[4,3-c]isoxazol-7-ylmethyl}-amino)-ethanol] | 1.26 | 25.1 | – | 0.501 | 0.2
